Each compound was assayed against T1, human GOAT (Homo sapiens, UniProt Q96T53) (assay: GOAT enzyme activity measurement by HTRF method (human GOAT-expressing microsome fraction)). Conditions: 10 μM compound; human GOAT-expressing Sf9 microsome fraction; octanoyl-CoA and Ghrelin-biotin substrates; 0% control without compound, 100% control without enzyme.
T1 construct: made in house; host or cells: Sf9 insect cells (BacToBac baculovirus, pFastBac1 vector); microsome fraction
T1 sequence (Q96T53 1-435): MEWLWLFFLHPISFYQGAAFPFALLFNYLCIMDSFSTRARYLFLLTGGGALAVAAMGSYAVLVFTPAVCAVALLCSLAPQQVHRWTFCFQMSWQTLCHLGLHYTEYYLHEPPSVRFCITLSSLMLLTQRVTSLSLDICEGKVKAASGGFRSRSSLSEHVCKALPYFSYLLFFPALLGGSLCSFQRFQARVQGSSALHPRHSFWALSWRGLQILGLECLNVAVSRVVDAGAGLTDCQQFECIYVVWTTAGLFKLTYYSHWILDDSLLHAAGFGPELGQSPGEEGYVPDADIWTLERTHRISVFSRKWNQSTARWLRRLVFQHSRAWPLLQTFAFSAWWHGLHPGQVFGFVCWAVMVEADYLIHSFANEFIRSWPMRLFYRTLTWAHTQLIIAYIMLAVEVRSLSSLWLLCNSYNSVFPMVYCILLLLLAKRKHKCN
Type: biochemical
Experimental: Human GOAT (Accession NO: EU518495) cDNA was amplified by PCR including reaction of (1) 98° C., 1 min, (2) 35 repeats of 98° C., 10 sec·65° C., 15 sec·72° C., 80 sec, and (3) 72° C., 5 min, using human stomach cDNA library (Takara Bio) as a template and Pyrobest DNA Polymerase (Takara Bio). The amplified fragment was treated with restriction enzymes, inserted into Stu I/Not I sites of pFastBacl (Invitrogen) by using Ligation High (TOYOBO), and transfected into ECOS JM109 (Nippon Gene) to construct pFB/hGOAT.
Production of Baculovirus and Preparation of Insect Cell Microsome Fraction
For preparation of baculovirus from pFB/hGOAT, BacToBac baculovirus expression system (Invitrogen) was used. The virus titer was measured by Real-Time PCR using SYBR Green (Takara Bio). Sf9 cells were infected with the obtained baculovirus at Multiplicity of Infection (MOI)=0.2, and cultured for 70 hr. The Sf9 cells were recovered, suspended in a suspension buffer (TBS (0.3 M NaCl), 1 mM DTT, 1 mM EDTA, Complete (Roche) (1 tablet/50 mL)), and the cells were disrupted twice on ice at 20000 rpm, 30 sec using a polytron homogenizer. The cell disruption solution was centrifuged at 1000 rpm for 10 min at 4° C., the supernatant was further ultracentrifuged at 40000 rpm for 30 min at 4° C. and the precipitate was recovered. The obtained precipitate was suspended in the suspension buffer used above to give a human GOAT-expressing microsome fraction. The protein level was measured using BCA Protein assay Reagent (PIERCE).
Enzyme Activity Measurement by HTRF Method
A compound solution (2 μL) diluted with an assay buffer containing 50 mM Tris-HCl (pH 7.5), 0.5% TWEEN20, and Complete to 15% DMSO and 90 μg/mL human GOAT-expressing microsome fraction (2 μL) were incubated at room temperature for 20 min, after which a substrate mixed solution (2 μL) containing 30 μM octanoyl-CoA (CHEM-IMPLEX) and 3 μM Ghrelin-biotin ([…]epsilon aminocaproic acid-biotin (Greiner Coutom synthesis)) was added to 384 white small volume plate (Greiner). After reaction for 20 min, 2 μL of citrate buffer (pH3) (mixed solution of 0.1 M citric acid (39.8 mL) and 0.2 M Na2HPO4 (10.2 mL)), 2 μL of 25 nM anti-active ghrelin antibody (produced in mouse), 5 μL of Eu(K)-Anti Mouse IgG Pab (Cis Bio) 100-fold diluted with HTRF detection buffer (Cis Bio) and 5 μL of streptavidin-Xlent (Cis Bio) 66.6-fold diluted with HTRF detection buffer (Cis Bio) were added. After incubation at room temperature for 1 hr or longer, the fluorescence values at 620 nm and 665 nm were measured by Envision (PerkinElmer). The data was calculated [(665 nm signal/620 nm signal)×10^4], and the inhibitory activity against human GOAT was shown by the data where 0% control was without compound, and 100% control was without enzyme.

Structure (SMILES)	inhibition at 10 µM [%]
Cn1nc(C(F)(F)F)cc1COc1ccc2c(CC(=O)O)csc2c1 [Example 18, (6-((1-Methyl-3-(trifluoromethyl)-1H-pyrazol-5-yl)methoxy)-1-benzothiophen-3-yl)acetic acid]	98.2
Cn1nc(C(F)(F)F)cc1COc1cc(Cl)c2c(CC(=O)O)csc2c1Cl [Example 28, (4,7-Dichloro-6-((1-methyl-3-(trifluoromethyl)-1H-pyrazol-5-yl)methoxy)-1-benzothiophen-3-yl)acetic acid]	105
COC(=O)Cc1c(C)sc2cc(OCc3cc(C(F)(F)F)nn3C)cc(Cl)c12 [Example 306, Methyl (4-chloro-2-methyl-6-((1-methyl-3-(trifluoromethyl)-1H-pyrazol-5-yl)methoxy)-1-benzothiophen-3-yl)acetate]	99.5
Cc1ccc(CCc2ccc3c(CC(=O)O)csc3c2)c(C)n1 [Example 182, (6-(2-(2,6-Dimethylpyridin-3-yl)ethyl)-1-benzothiophen-3-yl)acetic acid]	97.3
CC(=O)NCCc1coc2cc(OCc3ccc(Cl)cc3Cl)ccc12 [Example 196, N-(2-(6-(2,4-Dichlorobenzyloxy)-1-benzofuran-3-yl)ethyl)acetamide]	73
O=C(O)CNC(=O)Cc1csc2cc(OCc3ccc(Cl)cc3Cl)ccc12 [Example 55, N-((6-((2,4-Dichlorobenzyl)oxy)-1-benzothiophen-3-yl)acetyl)glycine]	95
O=C(O)C[C@H]1COc2cc(OCc3ccc(Cl)cc3Cl)ccc21 [Example 263, ((3R)-6-((2,4-Dichlorobenzyl)oxy)-2,3-dihydro-1-benzofuran-3-yl)acetic acid]	86
CCOC(=O)Cc1csc2cc(OCc3cc(C(F)(F)F)nn3C)ccc12 [Example 17, Ethyl(6-((1-methyl-3-(trifluoromethyl)-1H-pyrazol-5-yl)methoxy)-1-benzothiophen-3-yl)acetate]	88.9
Cc1nc(C(F)(F)F)ccc1COc1cc(F)c2c(CC(=O)O)csc2c1 [Example 305, (4-Fluoro-6-((2-methyl-6-(trifluoromethyl)pyridin-3-yl)methoxy)-1-benzothiophen-3-yl)acetic acid]	102
Cc1c(OCc2ccc(Cl)cc2Cl)cc(C)c2c(CC(=O)O)coc12 [Example 46, (6-((2,4-Dichlorobenzyl)oxy)-4,7-dimethyl-1-benzofuran-3-yl)acetic acid]	103
Cc1cc(COc2cc(Cl)c3c(CC(=O)O)csc3c2)n(C)n1 [Example 26, (4-Chloro-6-((1,3-dimethyl-1H-pyrazol-5-yl)methoxy)-1-benzothiophen-3-yl)acetic acid]	105
O=C(Cc1csc2cc(OCc3ccc(Cl)cc3Cl)ccc12)N[C@@H](CO)C(=O)O [Example 56, N-((6-((2,4-Dichlorobenzyl)oxy)-1-benzothiophen-3-yl)acetyl)serine]	97
COC(=O)[C@H](CO)NC(=O)Cc1csc2cc(OCc3ccc(Cl)cc3Cl)ccc12 [Example 54, Methyl N-((6-((2,4-dichlorobenzyl)oxy)-1-benzothiophen-3-yl)acetyl)serinate]	86
Cc1ccc(COc2ccc3c(CC(=O)O)csc3c2)c(C)n1 [Example 4, (6-((2,6-Dimethylpyridin-3-yl)methoxy)-1-benzothiophen-3-yl)acetic acid]	99
Cc1cc(COc2cc(C)c3c(CC(=O)O)csc3c2)n(C)n1 [Example 8, (6-((1,3-Dimethyl-1H-pyrazol-5-yl)methoxy)-4-methyl-1-benzothiophen-3-yl)acetic acid]	95.6
Cc1sc2cc(OCc3cc(C(F)(F)F)nn3C)cc(Cl)c2c1CC(=O)O [Example 307, (4-Chloro-2-methyl-6-((1-methyl-3-(trifluoromethyl)-1H-pyrazol-5-yl)methoxy)-1-benzothiophen-3-yl)acetic acid]	106
O=C(O)C1(CO)COc2cc(OCc3ccc(Cl)cc3Cl)ccc21 (stereo not shown) [Example 279, 6-((2,4-Dichlorobenzyl)oxy)-3-(hydroxymethyl)-2,3-dihydro-1-benzofuran-3-carboxylic acid]	81
COC(=O)Cc1csc2cc(OCc3cc(C(F)(F)F)nn3C)cc(C)c12 [Example 11, Methyl(4-methyl-6-((1-methyl-3-(trifluoromethyl)-1H-pyrazol-5-yl)methoxy)-1-benzothiophen-3-yl)acetate]	95.2
CCOC(=O)Cc1csc2cc(OCc3ccc(Cl)cc3Cl)ccc12 [Example 1, Ethyl(6-((2,4-dichlorobenzyl)oxy)-1-benzothiophen-3-yl)acetate]	69

Reference: patent US9238639B2, “Aromatic ring compound” (TAKEDA PHARMACEUTICAL COMPANY LIMITED, priority 2012, dated 2016)
